Consider 3 compounds from paper PMC2603005, “Structural insights into phenylethanolamines high-affinity binding site in NR2B from binding and molecular modeling studies” (Molecular Brain, 2008).

Like-named read-outs stand apart in the source and are kept apart here.

One assay concerns the target NR1-1a/NR2B receptors (Rattus norvegicus, UniProt P35439+Q00960). The assay is described as follows: cell-based.
Assay [1] deals with T1, 6 × His-ATD2B (amino-terminal domain of NR2B subunit), wild type (Rattus norvegicus, UniProt Q00960). The assay is described as follows: CD ligand displacement: RO25,6981 displacing saturating ifenprodil on 6 × His-ATD2B. Format: binding. Also on record: representation of the ATD2B construct (Arg27 to Arg393) with 6xHis-tag and linker; made in house. As for the experimental part: DLS measurements were made with DynaPro (Protein Solutions) and CD spectra were measured at 25°C on a Jasco J-715 Spectropolarimeter equipped with a 0.1 cm path-length cuvette (Jasco Corporation, Tokyo, Japan) as described previously. For the CD assays, the refolded protein was concentrated to 1 mg/ml using Vivaspin 2 ml concentrator (Vivascience). […] The CD spectra of the wild-type and mutant 6 × His-ATD2B proteins in the absence and presence of a ligand were recorded from 190 to 250 nm. The CD spectrum of Buffer 2 was subtracted from all the CD spectra obtained. […] All experiments were performed using at least two separate batches of induced and refolded 6 × His-ATD2B proteins (both wild-type and mutants), each batch in duplicates or triplicates. The dose-dependent binding curves of ligands to 6 × His-ATD2B were fitted by the following equation: […]

For assay [2], the target named is T1, 6 × His-ATD2B (amino-terminal domain of NR2B subunit), wild type. The assay is described as follows: biochemical.
Description: DLS measurements were made with DynaPro (Protein Solutions) and CD spectra were measured at 25°C on a Jasco J-715 Spectropolarimeter equipped with a 0.1 cm path-length cuvette (Jasco Corporation, Tokyo, Japan) as described previously [41]. For the CD assays, the refolded protein was concentrated to 1 mg/ml using Vivaspin 2 ml concentrator (Vivascience). […] The final change of assay volume was < 3% for all ligands investigated. The CD spectra of the wild-type and mutant 6 × His-ATD2B proteins in the absence and presence of a ligand were recorded from 190 to 250 nm. The CD spectrum of Buffer 2 was subtracted from all the CD spectra obtained. […] All experiments were performed using at least two separate batches of induced and refolded 6 × His-ATD2B proteins (both wild-type and mutants), each batch in duplicates or triplicates. The dose-dependent binding curves of ligands to 6 × His-ATD2B were fitted by the following equation:
Y = Bmax [ligand]/(KD + [ligand])
where Y is the shift in ellipticity, [ligand] is the concentration of ligand investigated and KD is the dissociation equilibrium constant.
The experiment data were analyzed by nonlinear curve fitting (ORIGIN7, USA). All pooled data were expressed as mean ± SEM.
Another assay deals with rat brain cortex. Particulars: [3H]ifenprodil binding; cited from earlier work.
The target in a further assay is NR1/NR2B. Further details: method as in PMID 15769547, PMID 15056006. Particulars: NR1/NR2B transfected HEK293 and mouse L(tk-) cell line; cited from earlier work.
A further assay concerns NR1/NR2B(D101A). Further details: method as in PMID 14534359. The note with it: D101A mutation, HEK293 membranes; cited from earlier work.
For another assay, the system named is NR1/NR2B(F176A). Further details: method as in PMID 14534359. The note with it: F176A mutation, HEK293 membranes; cited from earlier work.

T1 sequence (Q00960 27-393): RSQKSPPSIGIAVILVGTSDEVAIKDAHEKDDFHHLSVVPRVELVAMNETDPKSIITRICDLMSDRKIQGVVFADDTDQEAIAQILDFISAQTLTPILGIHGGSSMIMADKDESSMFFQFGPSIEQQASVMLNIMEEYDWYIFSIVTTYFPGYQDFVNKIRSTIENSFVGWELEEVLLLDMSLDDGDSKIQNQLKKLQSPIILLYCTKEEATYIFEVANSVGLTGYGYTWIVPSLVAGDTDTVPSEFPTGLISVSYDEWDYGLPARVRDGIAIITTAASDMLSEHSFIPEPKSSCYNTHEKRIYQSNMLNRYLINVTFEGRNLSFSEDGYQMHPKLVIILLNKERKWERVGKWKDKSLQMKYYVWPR
Chain of NR1-1a/NR2B receptors (Q00960 27-1482, other chains not shown): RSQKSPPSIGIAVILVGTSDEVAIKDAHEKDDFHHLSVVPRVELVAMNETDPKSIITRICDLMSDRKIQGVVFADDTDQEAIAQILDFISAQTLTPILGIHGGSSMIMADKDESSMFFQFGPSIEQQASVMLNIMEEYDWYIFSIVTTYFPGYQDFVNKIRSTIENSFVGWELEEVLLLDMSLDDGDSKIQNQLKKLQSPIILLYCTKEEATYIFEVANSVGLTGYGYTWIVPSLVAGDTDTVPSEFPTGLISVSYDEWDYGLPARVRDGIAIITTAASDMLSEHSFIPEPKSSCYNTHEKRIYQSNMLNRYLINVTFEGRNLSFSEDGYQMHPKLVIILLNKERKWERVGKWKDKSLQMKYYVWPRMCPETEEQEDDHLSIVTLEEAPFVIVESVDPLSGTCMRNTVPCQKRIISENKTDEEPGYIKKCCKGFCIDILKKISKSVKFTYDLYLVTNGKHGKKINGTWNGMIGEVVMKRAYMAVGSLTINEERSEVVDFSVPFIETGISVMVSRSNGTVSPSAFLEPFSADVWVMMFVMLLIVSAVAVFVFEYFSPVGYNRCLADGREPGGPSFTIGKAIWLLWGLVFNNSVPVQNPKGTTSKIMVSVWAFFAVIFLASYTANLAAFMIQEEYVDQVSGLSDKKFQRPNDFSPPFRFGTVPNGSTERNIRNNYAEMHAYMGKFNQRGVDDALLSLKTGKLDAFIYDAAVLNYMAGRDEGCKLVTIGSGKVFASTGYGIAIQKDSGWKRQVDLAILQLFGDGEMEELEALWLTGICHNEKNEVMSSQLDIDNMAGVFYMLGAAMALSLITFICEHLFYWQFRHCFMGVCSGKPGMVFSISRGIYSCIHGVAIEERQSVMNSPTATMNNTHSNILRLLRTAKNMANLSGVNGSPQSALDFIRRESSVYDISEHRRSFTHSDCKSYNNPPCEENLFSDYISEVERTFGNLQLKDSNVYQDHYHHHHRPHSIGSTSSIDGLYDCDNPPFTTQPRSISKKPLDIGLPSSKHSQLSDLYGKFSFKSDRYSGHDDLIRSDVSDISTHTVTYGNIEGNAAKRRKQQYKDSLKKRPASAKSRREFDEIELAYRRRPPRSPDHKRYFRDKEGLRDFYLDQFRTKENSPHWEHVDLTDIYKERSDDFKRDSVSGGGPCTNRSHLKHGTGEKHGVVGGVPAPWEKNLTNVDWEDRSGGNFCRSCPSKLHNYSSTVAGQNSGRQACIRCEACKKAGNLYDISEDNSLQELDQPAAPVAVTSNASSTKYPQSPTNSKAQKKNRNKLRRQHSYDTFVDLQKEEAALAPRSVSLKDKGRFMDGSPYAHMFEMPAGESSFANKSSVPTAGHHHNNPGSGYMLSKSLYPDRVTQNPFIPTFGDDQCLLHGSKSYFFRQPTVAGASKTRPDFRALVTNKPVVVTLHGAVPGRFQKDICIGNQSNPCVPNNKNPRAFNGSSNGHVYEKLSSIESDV
Description for NR1-1a/NR2B receptors: cRNA for rat NR1-1a (hereafter NR1) and NR2B were synthesized in vitro and injected (5–10 ng) into stage V-VI Xenopus laevis oocytes, isolated as previously described [22, 26, 58]. Two-electrode voltage-clamp current recordings were made 2–7 days post injection. The recording solution contained (in mM) 90 NaCl, 3 KCl, 10 HEPES, 0.5 BaCl2, 0.01 EDTA, 0.05 glycine (23°C); pH was adjusted to 7.3 with NaOH. EDTA (10 μM) was added to chelate contaminant extracellular divalent ions, including trace amounts of Zn^2+. Solution exchange was computer controlled through an 8-modular valve positioner (Digital MVP Valve, Hamilton Company, Reno, NV). Voltage and current electrodes were filled with 0.3 and 3.0 M KCl, respectively, and current responses recorded at a holding potential of -40 mV. […] Data were pooled among oocytes and mean composite concentration-effect curve was fitted by the following equation:

Turning to `C[C@@H](CN1CCC(Cc2ccccc2)CC1)[C@@H](O)c1ccc(O)cc1` [RO25,6981], the IC50 against NR1-1a/NR2B receptors was determined as 59 ± 1 nM. For the same compound, the inhibition constant (Ki) in assay [1] (Affinity (Ki) on displacing ifenprodil) was 4 ± 1 nM; in assay [1] (Affinity (Ki) on displacing ifenprodil, Buffer-12 refolded protein, in presence of saturating 5 μM ifenprodil), 2 ± 1 nM; in assay [1] (Affinity (Ki) on displacing ifenprodil, Buffer-13 refolded protein, in presence of saturating 5 μM ifenprodil), 3 ± 1 nM; in assay [1] (range over Buffers -9, -12 and -13, n = 5 per buffer, read-out: Ki values) it was 2 to 4 nM. Moreover, the Kd in assay [2] (Buffer-9 refolded protein, CD at 25°C, mean ± S.E., n = 5) was determined as 7 ± 3 nM; in assay [2] (Buffer-12 refolded protein, CD at 25°C, n = 5) it was 4 ± 1 nM; in assay [2] (Buffer-13 refolded protein, CD) it was 4 ± 2 nM.

On to `CC(C(O)c1ccc(O)cc1)N1CCC(Cc2ccccc2)CC1` (stereo not drawn) [[^3H]ifenprodil], for which the dissociation constant Kd is 36 nM on rat brain cortex and 34 to 79 nM at NR1/NR2B.

Regarding [^3H]RO25,6981, the “[3H]RO25,6981 binding to membranes” value with NR1/NR2B(D101A) and in the assay on NR1/NR2B(F176A) was “complete loss” throughout.
